Assay in all cases: Kinase Selectivity Assay (CEREP, HTRF)
Common to all, as to assay type: biochemical

In experiment [1] the target is T1, Akt1/PKBa (Homo sapiens, UniProt P31749).
T1 construct: CEREP, France (ran the assays)
To be noted: read-out: % Inhibition at 10 μM Concentration, Akt1/PKBalpha. On the procedure:
(§1) kinase, ROCK2, RSK2, Src kinase, Syk, and TRKA. The % Inhibition was determined

For experiment [2], the target named is T2, CDC2/CDK1 (cycB) (Homo sapiens, UniProt P06493).
T2 construct: CEREP, France (ran the assays)
The conditions noted are these: read-out: % Inhibition at 10 μM Concentration, CDC2/CDK1. On the procedure:
as §1

Experiment [3] has as its target T3, CHK2 (Homo sapiens, UniProt O96017).
T3 construct: CEREP, France (ran the assays)
To be noted: read-out: % Inhibition at 10 μM Concentration, CHK2. On the procedure: as §1

The target of experiment [4] is T4, ERK1 (Homo sapiens, UniProt P27361).
T4 construct: CEREP, France (ran the assays)
The conditions noted are these: read-out: % Inhibition at 10 μM Concentration, ERK1. On the procedure: as §1

Experiment [5] addresses T5, EphB4 kinase (Homo sapiens, UniProt P54760).
T5 construct: CEREP, France (ran the assays)
T5 sequence (P54760 16-987): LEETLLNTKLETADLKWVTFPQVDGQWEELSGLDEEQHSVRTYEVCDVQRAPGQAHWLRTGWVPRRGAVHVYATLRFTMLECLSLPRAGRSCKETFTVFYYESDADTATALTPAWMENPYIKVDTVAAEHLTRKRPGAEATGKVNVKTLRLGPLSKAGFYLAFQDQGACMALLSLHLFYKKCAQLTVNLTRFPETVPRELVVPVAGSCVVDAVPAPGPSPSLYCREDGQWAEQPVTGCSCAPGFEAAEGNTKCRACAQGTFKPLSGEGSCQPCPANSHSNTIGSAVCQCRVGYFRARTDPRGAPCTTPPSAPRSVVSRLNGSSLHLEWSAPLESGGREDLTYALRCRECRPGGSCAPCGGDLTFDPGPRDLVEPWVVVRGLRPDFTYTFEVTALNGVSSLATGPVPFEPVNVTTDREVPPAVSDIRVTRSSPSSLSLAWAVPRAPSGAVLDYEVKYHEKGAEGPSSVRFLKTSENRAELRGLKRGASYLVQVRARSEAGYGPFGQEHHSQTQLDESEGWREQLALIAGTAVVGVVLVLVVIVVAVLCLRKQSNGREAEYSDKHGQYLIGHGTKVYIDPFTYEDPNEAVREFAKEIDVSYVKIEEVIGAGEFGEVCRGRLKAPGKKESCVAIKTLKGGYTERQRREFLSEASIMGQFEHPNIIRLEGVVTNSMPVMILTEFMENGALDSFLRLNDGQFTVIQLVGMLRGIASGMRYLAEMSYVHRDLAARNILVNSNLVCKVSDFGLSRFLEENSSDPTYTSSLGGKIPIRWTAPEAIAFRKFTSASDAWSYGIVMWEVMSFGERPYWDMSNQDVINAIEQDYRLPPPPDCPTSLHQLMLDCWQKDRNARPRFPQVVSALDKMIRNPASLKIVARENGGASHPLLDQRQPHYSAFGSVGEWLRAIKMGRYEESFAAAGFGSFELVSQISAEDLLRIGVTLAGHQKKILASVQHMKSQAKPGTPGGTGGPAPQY
The conditions noted are these: read-out: % Inhibition at 10 μM Concentration, EphB4. On the procedure:
as §1

Experiment [6] concerns the target T6, FGFR2 kinase (Homo sapiens, UniProt P21802).
T6 construct: CEREP, France (ran the assays)
To be noted: read-out: % Inhibition at 10 μM Concentration, FGFR2. On the procedure:
as §1

Experiment [7] concerns the target Lck kinase (Homo sapiens, UniProt P06239). To be noted: read-out: % Inhibition at 10 μM Concentration, Lck. On the procedure: as §1
Experiment [8] deals with Lyn (Homo sapiens, UniProt P07948). The conditions noted are these: read-out: % Inhibition at 10 μM Concentration, Lyn. On the procedure: as §1
Experiment [9] concerns the target PKCb2 (Homo sapiens, UniProt P05771). To be noted: read-out: % Inhibition at 10 μM Concentration, PKCbeta 2. On the procedure:
as §1

Experiment [10] deals with Syk (Homo sapiens, UniProt P43405). The conditions noted are these: read-out: % Inhibition at 10 μM Concentration, Syk. On the procedure: as §1
In experiment [11] the target is T7, p38d kinase (Homo sapiens, UniProt O15264).
T7 sequence (O15264 1-365): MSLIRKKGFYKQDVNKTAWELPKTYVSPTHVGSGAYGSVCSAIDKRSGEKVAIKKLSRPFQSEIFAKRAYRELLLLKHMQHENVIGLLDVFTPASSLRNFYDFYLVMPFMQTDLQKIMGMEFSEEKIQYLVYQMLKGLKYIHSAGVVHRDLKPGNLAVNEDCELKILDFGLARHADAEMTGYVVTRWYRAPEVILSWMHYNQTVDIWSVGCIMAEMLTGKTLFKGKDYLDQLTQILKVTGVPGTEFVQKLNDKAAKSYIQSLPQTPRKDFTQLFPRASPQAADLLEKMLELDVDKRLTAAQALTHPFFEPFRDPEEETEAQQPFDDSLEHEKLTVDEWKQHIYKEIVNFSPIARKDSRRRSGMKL
The conditions noted are these: read-out: % Inhibition at 10 μM Concentration, p38delta. On the procedure: as §1

Experiment [12] has as its target T8, p38g kinase (Homo sapiens, UniProt P53778).
T8 sequence (P53778 1-367): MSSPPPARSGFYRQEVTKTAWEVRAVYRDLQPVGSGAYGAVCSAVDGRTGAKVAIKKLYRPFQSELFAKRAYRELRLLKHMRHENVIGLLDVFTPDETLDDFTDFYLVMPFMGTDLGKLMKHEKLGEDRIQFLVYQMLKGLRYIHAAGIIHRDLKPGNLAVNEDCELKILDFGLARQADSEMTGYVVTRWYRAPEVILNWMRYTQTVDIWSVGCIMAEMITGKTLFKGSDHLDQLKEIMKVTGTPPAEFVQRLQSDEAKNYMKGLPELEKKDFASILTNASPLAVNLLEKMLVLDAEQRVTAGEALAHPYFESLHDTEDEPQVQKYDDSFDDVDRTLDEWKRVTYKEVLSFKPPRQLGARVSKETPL
The conditions noted are these: read-out: % Inhibition at 10 μM Concentration, p38gamma. On the procedure: as §1

Experiment [13] addresses TRKA (Homo sapiens, UniProt P04629). The arrangement: purchased CEREP, France (contract assay service). The conditions noted are these: read-out: % Inhibition at 10 μM Concentration, TRKA. On the procedure:
as §1

Experimental findings from patent US8765748B2, “Indazolyl, benzimidazolyl, benzotriazolyl substituted indolinone derivatives as kinase inhibitors useful in the treatment of cancer” (University Health Network, priority 2007, dated 2014) are described below.

Chain of Lck kinase (P06239 whole entry): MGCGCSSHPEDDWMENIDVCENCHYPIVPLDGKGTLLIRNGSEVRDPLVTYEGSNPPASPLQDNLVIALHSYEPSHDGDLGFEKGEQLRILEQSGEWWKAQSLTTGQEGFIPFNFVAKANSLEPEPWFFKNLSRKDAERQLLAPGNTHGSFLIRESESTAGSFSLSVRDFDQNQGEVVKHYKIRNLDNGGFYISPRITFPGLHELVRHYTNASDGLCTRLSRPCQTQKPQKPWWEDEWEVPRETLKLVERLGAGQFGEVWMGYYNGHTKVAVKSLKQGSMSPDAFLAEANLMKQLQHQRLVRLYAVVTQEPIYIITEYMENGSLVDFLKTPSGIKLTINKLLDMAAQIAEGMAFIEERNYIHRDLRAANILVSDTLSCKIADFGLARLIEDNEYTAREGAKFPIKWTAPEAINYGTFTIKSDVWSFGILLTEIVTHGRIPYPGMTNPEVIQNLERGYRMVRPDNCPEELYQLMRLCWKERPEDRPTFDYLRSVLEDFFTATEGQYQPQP
Chain of TRKA (P04629 33-796): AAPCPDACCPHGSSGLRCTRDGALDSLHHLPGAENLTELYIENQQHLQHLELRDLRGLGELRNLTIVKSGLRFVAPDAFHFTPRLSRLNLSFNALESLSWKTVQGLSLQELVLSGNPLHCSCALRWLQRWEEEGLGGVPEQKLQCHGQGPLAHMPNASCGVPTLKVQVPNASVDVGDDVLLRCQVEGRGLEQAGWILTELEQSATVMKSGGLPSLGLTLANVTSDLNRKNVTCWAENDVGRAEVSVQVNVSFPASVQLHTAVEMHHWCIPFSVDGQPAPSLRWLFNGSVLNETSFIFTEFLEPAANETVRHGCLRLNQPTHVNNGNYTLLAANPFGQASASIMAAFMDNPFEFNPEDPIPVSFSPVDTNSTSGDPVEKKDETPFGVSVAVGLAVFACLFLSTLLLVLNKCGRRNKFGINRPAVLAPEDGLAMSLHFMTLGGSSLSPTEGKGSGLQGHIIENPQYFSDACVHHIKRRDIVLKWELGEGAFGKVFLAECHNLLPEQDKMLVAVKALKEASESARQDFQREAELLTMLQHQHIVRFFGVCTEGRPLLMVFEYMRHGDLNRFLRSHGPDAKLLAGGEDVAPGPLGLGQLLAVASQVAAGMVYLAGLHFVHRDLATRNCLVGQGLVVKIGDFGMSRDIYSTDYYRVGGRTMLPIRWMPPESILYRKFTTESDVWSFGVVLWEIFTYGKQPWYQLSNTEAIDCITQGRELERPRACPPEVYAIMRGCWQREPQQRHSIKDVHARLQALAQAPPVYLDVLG
T3 sequence (O96017 whole entry): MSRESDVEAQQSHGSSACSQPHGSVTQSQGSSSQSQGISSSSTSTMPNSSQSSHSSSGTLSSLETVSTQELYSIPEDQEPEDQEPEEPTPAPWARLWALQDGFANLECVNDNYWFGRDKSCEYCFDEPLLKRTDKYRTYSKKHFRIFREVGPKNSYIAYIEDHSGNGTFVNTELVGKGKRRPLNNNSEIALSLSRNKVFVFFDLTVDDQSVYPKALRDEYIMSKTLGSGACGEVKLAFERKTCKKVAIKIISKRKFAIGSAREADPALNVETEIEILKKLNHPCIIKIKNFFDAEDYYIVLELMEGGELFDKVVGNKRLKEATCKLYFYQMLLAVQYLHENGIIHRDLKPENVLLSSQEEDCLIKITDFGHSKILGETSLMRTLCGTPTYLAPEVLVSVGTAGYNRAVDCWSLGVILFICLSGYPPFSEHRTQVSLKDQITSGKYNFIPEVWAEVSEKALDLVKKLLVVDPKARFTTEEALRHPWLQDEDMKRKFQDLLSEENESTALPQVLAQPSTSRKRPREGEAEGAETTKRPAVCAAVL
T4 sequence (P27361 whole entry): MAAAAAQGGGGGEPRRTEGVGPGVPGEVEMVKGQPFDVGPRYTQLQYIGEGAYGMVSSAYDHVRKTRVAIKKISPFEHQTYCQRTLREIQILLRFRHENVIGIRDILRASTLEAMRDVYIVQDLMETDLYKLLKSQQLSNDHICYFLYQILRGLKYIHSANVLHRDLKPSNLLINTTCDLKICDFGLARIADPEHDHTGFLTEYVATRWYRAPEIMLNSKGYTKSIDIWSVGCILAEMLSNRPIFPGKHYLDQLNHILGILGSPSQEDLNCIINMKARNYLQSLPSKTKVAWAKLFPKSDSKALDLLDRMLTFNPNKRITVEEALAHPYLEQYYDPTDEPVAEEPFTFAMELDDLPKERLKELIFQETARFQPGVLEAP
T6 sequence (P21802 22-821): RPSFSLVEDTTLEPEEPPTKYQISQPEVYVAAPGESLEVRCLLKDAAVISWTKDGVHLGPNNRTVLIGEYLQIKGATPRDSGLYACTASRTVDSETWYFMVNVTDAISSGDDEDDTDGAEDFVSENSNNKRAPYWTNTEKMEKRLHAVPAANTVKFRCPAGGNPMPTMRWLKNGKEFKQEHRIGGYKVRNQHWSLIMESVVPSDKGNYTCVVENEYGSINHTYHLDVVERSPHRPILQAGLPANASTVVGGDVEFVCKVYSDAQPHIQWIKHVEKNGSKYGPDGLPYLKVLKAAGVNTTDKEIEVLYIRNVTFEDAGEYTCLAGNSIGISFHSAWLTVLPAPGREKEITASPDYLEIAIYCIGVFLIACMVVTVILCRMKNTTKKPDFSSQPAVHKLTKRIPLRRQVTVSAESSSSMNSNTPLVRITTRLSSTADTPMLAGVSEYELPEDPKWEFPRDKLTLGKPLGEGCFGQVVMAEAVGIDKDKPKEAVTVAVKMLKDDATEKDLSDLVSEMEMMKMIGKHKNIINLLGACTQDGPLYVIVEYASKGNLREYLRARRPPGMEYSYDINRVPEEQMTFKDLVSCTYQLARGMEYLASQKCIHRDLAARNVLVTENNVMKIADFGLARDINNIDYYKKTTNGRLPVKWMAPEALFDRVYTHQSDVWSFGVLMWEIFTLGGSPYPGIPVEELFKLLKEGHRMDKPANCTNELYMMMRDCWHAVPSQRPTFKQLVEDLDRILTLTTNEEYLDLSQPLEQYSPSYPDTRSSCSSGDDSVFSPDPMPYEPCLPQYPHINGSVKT
Chain of Lyn (P07948 whole entry): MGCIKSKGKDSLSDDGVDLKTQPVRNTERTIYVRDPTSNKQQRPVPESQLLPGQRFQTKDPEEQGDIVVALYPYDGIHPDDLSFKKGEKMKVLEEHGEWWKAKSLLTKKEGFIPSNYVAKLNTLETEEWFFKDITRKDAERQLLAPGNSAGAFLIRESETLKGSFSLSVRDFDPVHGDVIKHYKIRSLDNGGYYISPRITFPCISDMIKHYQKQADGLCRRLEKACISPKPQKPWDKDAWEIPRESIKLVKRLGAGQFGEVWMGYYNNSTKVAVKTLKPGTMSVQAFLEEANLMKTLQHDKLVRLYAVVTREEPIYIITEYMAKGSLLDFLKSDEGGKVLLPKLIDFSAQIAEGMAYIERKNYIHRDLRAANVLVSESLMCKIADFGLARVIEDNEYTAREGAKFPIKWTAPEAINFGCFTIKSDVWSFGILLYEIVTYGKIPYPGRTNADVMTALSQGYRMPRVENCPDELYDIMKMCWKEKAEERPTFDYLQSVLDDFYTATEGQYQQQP
T2 sequence (P06493 whole entry): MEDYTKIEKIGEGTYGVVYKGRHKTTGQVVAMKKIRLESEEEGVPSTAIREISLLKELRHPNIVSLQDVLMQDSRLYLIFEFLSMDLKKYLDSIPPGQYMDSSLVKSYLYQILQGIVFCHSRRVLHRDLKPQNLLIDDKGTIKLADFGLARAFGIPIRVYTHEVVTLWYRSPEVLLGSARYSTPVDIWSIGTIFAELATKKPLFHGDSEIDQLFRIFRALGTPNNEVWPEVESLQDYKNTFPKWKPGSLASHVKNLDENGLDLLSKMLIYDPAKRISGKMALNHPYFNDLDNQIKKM
T2 sequence (P14635 whole entry partner): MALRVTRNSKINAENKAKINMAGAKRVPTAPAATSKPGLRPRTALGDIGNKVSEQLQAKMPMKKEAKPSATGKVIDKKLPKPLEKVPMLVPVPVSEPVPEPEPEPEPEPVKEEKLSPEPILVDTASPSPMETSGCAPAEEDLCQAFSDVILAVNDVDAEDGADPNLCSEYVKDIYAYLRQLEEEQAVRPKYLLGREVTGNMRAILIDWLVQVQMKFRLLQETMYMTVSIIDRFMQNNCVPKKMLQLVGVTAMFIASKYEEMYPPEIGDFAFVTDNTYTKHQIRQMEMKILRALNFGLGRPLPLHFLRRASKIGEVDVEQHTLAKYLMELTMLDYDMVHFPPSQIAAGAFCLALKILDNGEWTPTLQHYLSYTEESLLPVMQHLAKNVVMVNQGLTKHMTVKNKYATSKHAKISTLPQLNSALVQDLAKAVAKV
Chain of PKCb2 (P05771 1-673 isoform P05771-2): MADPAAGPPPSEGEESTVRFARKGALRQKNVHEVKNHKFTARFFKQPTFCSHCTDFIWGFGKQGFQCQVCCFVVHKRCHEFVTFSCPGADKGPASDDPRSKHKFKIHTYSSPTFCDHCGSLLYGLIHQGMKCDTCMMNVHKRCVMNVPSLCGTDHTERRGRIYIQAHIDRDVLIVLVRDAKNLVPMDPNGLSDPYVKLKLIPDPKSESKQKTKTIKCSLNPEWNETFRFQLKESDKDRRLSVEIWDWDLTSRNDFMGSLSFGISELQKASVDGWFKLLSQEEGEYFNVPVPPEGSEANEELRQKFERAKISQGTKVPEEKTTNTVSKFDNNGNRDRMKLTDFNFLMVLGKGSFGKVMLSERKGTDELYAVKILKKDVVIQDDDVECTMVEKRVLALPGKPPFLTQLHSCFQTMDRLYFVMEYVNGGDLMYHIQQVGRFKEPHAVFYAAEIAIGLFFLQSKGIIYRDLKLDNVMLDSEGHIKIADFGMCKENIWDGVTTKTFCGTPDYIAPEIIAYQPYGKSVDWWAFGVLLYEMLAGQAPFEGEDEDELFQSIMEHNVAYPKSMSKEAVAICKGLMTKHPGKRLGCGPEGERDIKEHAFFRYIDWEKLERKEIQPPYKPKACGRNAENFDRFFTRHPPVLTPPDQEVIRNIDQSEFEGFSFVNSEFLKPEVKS

In the case of `O=C1Nc2ccccc2C1=Cc1ccc2c(/C=C/c3ccccn3)n[nH]c2c1` (mixture of isomers) [Example A41, (E and Z)-3-((3-((E)-2-(pyridin-2-yl)vinyl)-1H-indazol-6-yl)methylene)indolin-2-one], the inhibition at 10 µM is -3% in [1]; 62% in [2]; 22% in experiment [3]; 13% in experiment [4]; 85% in [5]; 97% in experiment [6]. Further, the inhibition at 10 µM in experiment [7] was 88%; in [8], 98%; in experiment [9], 12%; in [10], 70%; in experiment [11], -5%; in experiment [12], 2%. Besides, the inhibition at 10 µM in experiment [13] was found to be 99%.

As to `COc1ccc2c(c1)C(=Cc1ccc3c(-c4ccc(N5CCN(C)CC5)nc4)n[nH]c3c1)C(=O)N2` (mixture of isomers) [Example A97, (E and Z)-5-methoxy-3-((3-(6-(4-methylpiperazin-1-yl)pyridin-3-yl)-1H-indazol-6-yl)methylene)indolin-2-one], the inhibition at 10 µM was -4% in experiment [1]; 15% in [2]; 4% in experiment [3]; 10% in [4]; 6% in [5]; 35% in experiment [6]. Also, the inhibition at 10 µM in experiment [7] amounted to 89%; in experiment [8], 85%; in [9], 37%; in experiment [10], 21%; in [11] it was 13%; in experiment [12] it was 1%. For the same compound, in experiment [13], the inhibition at 10 µM was 93%.

Regarding `O=C1Nc2ccccc2/C1=C\c1ccc2[nH]nnc2c1` [Example A1, (E)-3-((1H-benzo[d][1,2,3]triazol-5-yl)methylene)indolin-2-one], the inhibition at 10 µM was -3% in experiment [1]; 2% in [2]; 14% in experiment [3]; 6% in [4]; 5% in [5]; 68% in experiment [6]. The inhibition at 10 µM is 14% in [8]; 0% in experiment [9]; -2% in experiment [10]; 0% in experiment [11]; 14% in [12]; -13% in [13].

Consider `O=C1Nc2ccccc2/C1=C\c1ccc2cn[nH]c2c1` [Example A5, (E)-3-((1H-indazol-6-yl)methylene)indolin-2-one], for which the inhibition at 10 µM was -4% in experiment [1]; 9% in experiment [2]; 2% in [3]; 6% in [4]; -5% in [5]; 31% in [6]. Further, the inhibition at 10 µM in experiment [7] is 0%; in experiment [8] it was -5%; in experiment [9], 2%; in [10], -3%; in experiment [11] it was -8%; in [12], 5%. In [13], the inhibition at 10 µM turned out to be 60%.

As for `O=C1Nc2ccccc2/C1=C\c1ccc2c(/C=C/c3ccccc3Cl)n[nH]c2c1` [Example A60, (E)-3-((3-((E)-2-chlorostyryl)-1H-indazol-6-yl)methylene)indolin-2-one], the inhibition at 10 µM in experiment [1] was -14%; in [2] it was 18%; in experiment [3] it was 6%; in experiment [4], 1%; in [5], -14%; in experiment [6] it was 10%. The inhibition at 10 µM in experiment [7] came out at 30%; in experiment [8] it was 88%; in experiment [9], 4%; in experiment [11], 3%; in experiment [12], 10%; in experiment [13], 75%.
